The source of these data is patent publication US20160264568A1, “SUBSTITUTED TRIAZOLOPYRIDINES HAVING ACTIVITY AS MPS-1 INHIBITORS” (BAYER PHARMA AKTIENGESELLSCHAFT, priority 2013, published 2016).

Like-named read-outs stand apart in the source and are kept apart here. Bounds are passed on as bounds.

Data set [1] can be described thus: Metabolic stability in vitro, rat liver microsomes. The class given is in vitro ADME. To be noted: maximal oral bioavailability calculated from microsomal half-life, 1 μM compound. The protocol: (§1) The metabolic stability of test compounds in vitro was determined by incubating them at 1 μM with a suspension of liver microsomes in 100 mM phosphate buffer, pH7.4 (NaH2PO4xH2O+Na2HPO4x2H2O) at a protein concentration of 0.5 mg/mL and at 37° C. The reaction was activated by adding a co-factor mix containing 1.2 mg NADP, 3 IU glucose-6-phosphate dehydrogenase, 14.6 mg glucose-6-phosphate and 4.9 mg MgCl2 in phosphate buffer, pH 7.4. Organic solvent in the incubations was limited to <0.2% dimethylsulfoxide (DMSO) and <1% methanol. During incubation, the microsomal suspensions were continuously shaken and aliquots were taken at 2, 8, 16, 30, 45 and 60 min, to which equal volumes of cold methanol were immediately added. Samples were frozen at −20° C. over night, subsequently centrifuged for 15 minutes at 3000 rpm and the supernatant was analyzed with an Agilent 1200 HPLC-system with LCMS/MS detection.
(§2) The half-life of a test compound was determined from the concentration-time plot. From the half-life the intrinsic clearances were calculated. Together with the additional parameters liver blood flow, specific liver weight and microsomal protein content the hepatic in vivo blood clearance (CL) and the maximal oral bioavailability (Fmax) were calculated for the different species. […]

The target in another data set is T1, human kinase Mps-1 (Homo sapiens, UniProt P33981).
T1 construct: N-terminally GST-tagged human full length recombinant Mps-1 kinase; GST (N); purchased Invitrogen, Karslruhe, Germany PV4071
T1 sequence (P33981 1-857): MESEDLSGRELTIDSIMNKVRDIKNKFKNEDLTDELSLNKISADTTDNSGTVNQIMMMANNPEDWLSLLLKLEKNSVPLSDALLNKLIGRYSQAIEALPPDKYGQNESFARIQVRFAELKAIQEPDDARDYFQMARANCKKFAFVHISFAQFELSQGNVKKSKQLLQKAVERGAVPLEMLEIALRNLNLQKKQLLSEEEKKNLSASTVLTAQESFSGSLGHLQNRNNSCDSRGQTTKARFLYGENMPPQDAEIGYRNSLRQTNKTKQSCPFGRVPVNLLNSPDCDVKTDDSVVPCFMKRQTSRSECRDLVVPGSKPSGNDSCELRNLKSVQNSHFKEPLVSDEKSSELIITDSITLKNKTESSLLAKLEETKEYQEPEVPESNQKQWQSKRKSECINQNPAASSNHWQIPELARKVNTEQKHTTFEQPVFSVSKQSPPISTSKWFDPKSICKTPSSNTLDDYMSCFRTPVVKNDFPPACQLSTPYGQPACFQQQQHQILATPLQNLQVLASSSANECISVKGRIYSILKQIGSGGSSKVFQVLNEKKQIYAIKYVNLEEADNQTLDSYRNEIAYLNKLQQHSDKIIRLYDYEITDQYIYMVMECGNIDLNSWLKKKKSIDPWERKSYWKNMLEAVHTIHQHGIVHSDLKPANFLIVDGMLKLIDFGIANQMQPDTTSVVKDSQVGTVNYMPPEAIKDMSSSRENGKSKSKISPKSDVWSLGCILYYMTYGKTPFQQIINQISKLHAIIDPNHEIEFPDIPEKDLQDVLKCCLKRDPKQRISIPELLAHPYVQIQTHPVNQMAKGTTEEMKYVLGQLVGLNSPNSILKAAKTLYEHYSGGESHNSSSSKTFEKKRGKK
The experiment in a line: Mps-1 kinase assay (TR-FRET). The class given is biochemical. The protocol:
The human kinase Mps-1 phosphorylates a biotinylated substrate peptide. Detection of the phosphorylated product is achieved by time-resolved fluorescence resonance energy transfer (TR-FRET) from Europium-labelled anti-phospho-Serine/Threonine antibody as donor to streptavidin labelled with cross-linked allophycocyanin (SA-XLent) as acceptor. Compounds are tested for their inhibition of the kinase activity.
N-terminally GST-tagged human full length recombinant Mps-1 kinase (purchased from Invitrogen, Karslruhe, Germany, cat. no PV4071) was used. […]
The resulting mixture was incubated 1 h at 22° C. to allow the binding of the phosphorylated peptide to the anti-phospho(Ser/Thr)-Europium-antibody. Subsequently the amount of phosphorylated substrate was evaluated by measurement of the resonance energy transfer from the Europium-labelled anti-phospho(Ser/Thr) antibody to the Streptavidin-XLent. Therefore, the fluorescence emissions at 620 nm and 665 nm after excitation at 350 nm was measured in a Viewlux TR-FRET reader (PerkinElmer LAS, Rodgau-Jugesheinn, Germany). The “blank-corrected normalized ratio” (a Viewlux specific readout, similar to the traditional ratio of the emissions at 665 nm and at 622 nm, in which blank and Eu-donor crosstalk are subtracted from the 665 nm signal before the ratio is calculated) was taken as the measure for the amount of phosphorylated substrate. […]
(TR-FRET usually uses a lanthanide donor and a delayed reading to cut background.)

The test system of data set [2] is HeLa human cervical tumor cells. In words: HeLa cell proliferation assay (crystal violet). It is filed as cell-based. Particulars: 96 h, 4 days incubation, crystal violet staining, read-out: Inhibition of cell proliferation, cell Line: HeLa IC50. The protocol: Cultivated tumor cells (MCF7, hormone dependent human mammary carcinoma cells, ATCC HTB22; NCI-H460, human non-small cell lung carcinoma cells, ATCC HTB-177; DU 145, hormone-independent human prostate carcinoma cells, ATCC HTB-81; HeLa-MaTu, human cervical carcinoma cells, EPO-GmbH, Berlin; HeLa-MaTu-ADR, multidrug-resistant human cervical carcinoma cells, EPO-GmbH, Berlin; HeLa human cervical tumor cells, ATCC CCL-2; B16F10 mouse melanoma cells, ATCC CRL-6475) were plated at a density of 5000 cells/well (MCF7, DU145, HeLa-MaTu-ADR), 3000 cells/well (NCI-H460, HeLa-MaTu, HeLa), or 1000 cells/well (B16F10) in a 96-well multititer plate in 200 μl of their respective growth medium supplemented 10% fetal calf serum. […] Cell proliferation was determined by staining the cells with crystal violet: the cells were fixed by adding 20 μl/measuring point of an 11% glutaric aldehyde solution for 15 minutes at room temperature. […] The extinction of the stained cells was determined by photometry at a wavelength of 595 nm. The change of cell number, in percent, was calculated by normalization of the measured values to the extinction values of the zero-point plate (=0%) and the extinction of the untreated (0 μm) cells (=100%). The […] values were determined by means of a 4 parameter fit using the company's own software. […]

Data set [3] in a line: Metabolic stability in vitro, human liver microsomes. The class given is in vitro ADME. To be noted: maximal oral bioavailability calculated from microsomal half-life, 1 μM compound. The protocol: as §1, §2
The nature of data set [4]: Metabolic stability in vitro, dog liver microsomes. It is filed as in vitro ADME. To be noted: maximal oral bioavailability calculated from microsomal half-life, 1 μM compound. How it is done:
as §1, §2

`COc1cc2c(cc1Nc1nc3ccc(-c4ccc(NC(=O)[C@H](C)c5ccc(F)cc5)cc4)cn3n1)CCS2(=O)=O` [Example01.01, (2R)-2-(4-fluorophenyl)-N-(4-{2-[(6-methoxy-1,1-dioxido-2,3-dihydro-1-benzothiophen-5-yl)amino][1,2,4]triazolo[1,5-a]pyridin-6-yl}phenyl)propanamide]: the “Rat liver microsomes; Fmax [%]” value in data set [1] is listed as 96%. Also, the IC50 was less than 1 nM at human kinase Mps-1 (10 μM ATP, read-out: Mps-1 Inhibition, IC50 (Assay with 10 μM ATP)); 1.6 nM at human kinase Mps-1 (2 mM ATP, read-out: Mps-1 Inhibition, IC50 (Assay with 2 mM ATP)); less than 400 nM in data set [2]. In data set [3], the “Human liver microsomes; Fmax [%]” value is recorded as 83%. For the same compound, in data set [4], the “Dog liver microsomes; Fmax [%]” value was 65%.
